{
  "source": "patent US11155844B2",
  "about": "“Process for the production of ortho-aminobenzoic acid and/or aniline from fermentable substrate using recombinant yeast” (Covestro Deutschland AG, priority 2015, dated 2021)",
  "experiment": "solubility of oAB in water depending on the pH",
  "format": "physicochemical",
  "details": "plasma or biological fluid; pH between 3.0 and 4.0; fermentation broth; read-out: oAB remaining dissolved at the solubility minimum",
  "data": [
    {"smiles": "Nc1ccccc1C(=O)O", "note": "[oAB, 2-aminobenzoic acid]", "values": [
      {"measurement": "solubility", "result": "~5", "unit": "mg/mL"}
    ]}
  ]
}
